# Assay results published in the supplement of paper PMC11451515.
# Tested on: P12-Ichikawa
# Experiment: cell viability relative to DMSO control; higher = less cytotoxic
# Conditions: 48 h
# How it was run: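 Before seeding, each leukemia line was adapted for at least four passages in each medium. NOMO1 or SEM cells (500 cells/well) and P12-Ichikawa cells (1000 cells/well) went into 1536-well plates at 5 μl, then received library compounds in DMSO by pin dosing across 11 threefold concentrations, 47 μM to 0.79 nM. Readout was CellTiter-Glo One luminescence after 48 h at 37°C, and viability is given as a per-plate percentage of DMSO wells, with cell-free wells as background.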
# [1] = HPLM + 10% dialyzed FBS, 0.000781 µM
# [2] = HPLM + 10% dialyzed FBS, 0.00234 µM
# [3] = HPLM + 10% dialyzed FBS, 0.00702 µM
# [4] = HPLM + 10% dialyzed FBS, 0.0211 µM
# [5] = HPLM + 10% dialyzed FBS, 0.0632 µM
# [6] = HPLM + 10% dialyzed FBS, 0.19 µM
# [7] = HPLM + 10% dialyzed FBS, 0.569 µM
# [8] = HPLM + 10% dialyzed FBS, 1.71 µM
# [9] = HPLM + 10% dialyzed FBS, 5.12 µM
# [10] = HPLM + 10% dialyzed FBS, 15.4 µM
# [11] = HPLM + 10% dialyzed FBS, 46.1 µM
# [12] = RPMI 5 mM glucose + 10% FBS, 0.000781 µM
# [13] = RPMI 5 mM glucose + 10% FBS, 0.00234 µM
# [14] = RPMI 5 mM glucose + 10% FBS, 0.00702 µM
# [15] = RPMI 5 mM glucose + 10% FBS, 0.0211 µM
# [16] = RPMI 5 mM glucose + 10% FBS, 0.0632 µM
# [17] = RPMI 5 mM glucose + 10% FBS, 0.19 µM
# [18] = RPMI 5 mM glucose + 10% FBS, 0.569 µM
# [19] = RPMI 5 mM glucose + 10% FBS, 1.71 µM
# [20] = RPMI 5 mM glucose + 10% FBS, 5.12 µM
# [21] = RPMI 5 mM glucose + 10% FBS, 15.4 µM
# [22] = RPMI 5 mM glucose + 10% FBS, 46.1 µM
# [23] = RPMI 5 mM glucose + 10% dialyzed FBS, 0.000781 µM
# [24] = RPMI 5 mM glucose + 10% dialyzed FBS, 0.00234 µM
# [25] = RPMI 5 mM glucose + 10% dialyzed FBS, 0.00702 µM
# [26] = RPMI 5 mM glucose + 10% dialyzed FBS, 0.0211 µM
# [27] = RPMI 5 mM glucose + 10% dialyzed FBS, 0.0632 µM
# [28] = RPMI 5 mM glucose + 10% dialyzed FBS, 0.19 µM
# [29] = RPMI 5 mM glucose + 10% dialyzed FBS, 0.569 µM
# [30] = RPMI 5 mM glucose + 10% dialyzed FBS, 1.71 µM
# [31] = RPMI 5 mM glucose + 10% dialyzed FBS, 5.12 µM
# [32] = RPMI 5 mM glucose + 10% dialyzed FBS, 15.4 µM
# [33] = RPMI 5 mM glucose + 10% dialyzed FBS, 46.1 µM
Compound,cell viability [1],cell viability [2],cell viability [3],cell viability [4],cell viability [5],cell viability [6],cell viability [7],cell viability [8],cell viability [9],cell viability [10],cell viability [11],cell viability [12],cell viability [13],cell viability [14],cell viability [15],cell viability [16],cell viability [17],cell viability [18],cell viability [19],cell viability [20],cell viability [21],cell viability [22],cell viability [23],cell viability [24],cell viability [25],cell viability [26],cell viability [27],cell viability [28],cell viability [29],cell viability [30],cell viability [31],cell viability [32],cell viability [33]
CN(C)C1=CC(=CC=C1)C\2=C\3C(=O)N(NC3=C/C(=O)N2C)C4=CC=CC=C4Cl,114%,112%,106%,111%,113%,95.8%,90.3%,10.8%,4.69%,4.7%,7.14%,113%,122%,116%,110%,117%,110%,103%,25.7%,9.73%,8.05%,15.8%,122%,114%,114%,112%,120%,109%,102%,41.3%,21.1%,16.6%,23.9%
Cc1nc2cc(C(=O)N3CCC4(CC3)CC(=O)c3c(cnn3C(C)C)C4)ccc2[nH]1,103%,121%,107%,120%,116%,119%,122%,110%,93.3%,112%,18%,,,,,,,,,,,,,,,,,,,,,,
CCC(C)N1\N=C/N(C1=O)C2=CC=C(C=C2)N3CCN(CC3)C4=CC=C(OC[C@H]5CO[C@@](C[N]6C=NC=N6)(O5)C7=CC=C(Cl)C=C7Cl)C=C4 (stereo partly specified),99.9%,109%,114%,120%,111%,115%,101%,101%,103%,98.8%,104%,111%,111%,119%,114%,108%,115%,115%,99.7%,108%,110%,97.2%,111%,113%,108%,111%,113%,111%,106%,105%,100%,98.5%,95.7%
COc1ccc(C(=O)c2c(C)n(CCN3CCOCC3)c3ccccc23)cc1,94.2%,104%,101%,95.2%,106%,111%,103%,109%,98.3%,111%,111%,89.3%,91.1%,95%,100%,97.5%,96.7%,101%,113%,84.4%,110%,98.9%,96.5%,93.2%,99.4%,98.2%,99.3%,102%,98.4%,93.8%,104%,112%,109%
CCC[S+](=O)([O-])Nc1ccc(F)c(C(=O)c2c[nH]c3ncc(Cl)cc23)c1F,110%,116%,109%,119%,112%,110%,99.8%,108%,103%,65.7%,44.2%,115%,115%,121%,116%,114%,115%,123%,113%,113%,85.6%,54.7%,118%,118%,119%,118%,120%,115%,111%,110%,99.8%,72.3%,44.2%
O=C(Nc1c[nH]nc1-c1nc2cc(CN3CCOCC3)ccc2[nH]1)NC1CC1,93.4%,101%,101%,97.6%,53.8%,12.7%,23.9%,38.5%,51.6%,36.5%,19.3%,97%,103%,101%,99.8%,59%,16%,38%,47.3%,45.1%,38.6%,14.1%,99%,98.6%,91.5%,102%,65.2%,24.8%,45.8%,58.5%,60.2%,46.5%,14.2%
N#CC(c1ccnc(NCCc2cccnc2)n1)c1nc2ccccc2s1 (stereo unspecified),115%,128%,120%,127%,127%,134%,131%,121%,141%,141%,118%,,,,,,,,,,,,122%,136%,122%,145%,142%,152%,151%,148%,140%,133%,120%
CCOC(=O)N1c2ccc(C(F)(F)F)cc2[C@@H](N(Cc2cc(C(F)(F)F)cc(C(F)(F)F)c2)C(=O)OC)C[C@H]1CC,127%,120%,116%,119%,119%,114%,121%,110%,116%,110%,106%,131%,123%,122%,132%,133%,116%,127%,121%,124%,103%,111%,115%,128%,117%,118%,120%,127%,121%,114%,123%,112%,104%
